According to publication PMC2229537 (The Journal of General Physiology, 2002):
Values joined by “and” are separate entries in the source; they are usually repeats but may differ in a detail not shown here. Identical values can stand only once.

What was measured:
[1] = system: EP AChRs of CMS patient (εD175N and εN182Y); assay: Patch-clamp recordings of ACh-elicited channel currents from patient endplates; assay type: cell-based, human; conditions: −80 mV
Torpedo receptor = conditions: resting closed state; ref Sine et al., 1990; cited from earlier work
fetal mouse receptor = conditions: resting closed state; ref Zhang et al., 1995; cited from earlier work
adult human receptor = conditions: resting closed state; ref Ohno et al., 1996; Wang et al., 1999; cited from earlier work
wild-type AChR = wild-type AChR (Homo sapiens, UniProt P02708+Q04844+Q07001); assay type: binding; conditions: 100 μM proadifen
[2] = ACh 5 μM, 8 kHz, 22°C, mean ± SE, four EPs

wild-type AChR, sequence (P02708 21-457): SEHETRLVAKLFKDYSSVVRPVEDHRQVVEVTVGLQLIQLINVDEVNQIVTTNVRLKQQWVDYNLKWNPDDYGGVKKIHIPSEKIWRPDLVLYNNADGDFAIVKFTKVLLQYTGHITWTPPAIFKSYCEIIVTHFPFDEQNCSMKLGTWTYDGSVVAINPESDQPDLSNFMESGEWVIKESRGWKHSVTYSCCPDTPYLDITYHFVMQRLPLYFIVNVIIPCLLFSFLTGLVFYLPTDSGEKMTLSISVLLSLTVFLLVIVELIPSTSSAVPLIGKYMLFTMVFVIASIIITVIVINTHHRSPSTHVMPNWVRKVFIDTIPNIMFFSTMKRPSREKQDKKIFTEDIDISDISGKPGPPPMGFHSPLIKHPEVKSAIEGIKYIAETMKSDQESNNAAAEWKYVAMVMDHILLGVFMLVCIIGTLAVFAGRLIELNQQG
wild-type AChR, sequence (P11230 24-501 partner): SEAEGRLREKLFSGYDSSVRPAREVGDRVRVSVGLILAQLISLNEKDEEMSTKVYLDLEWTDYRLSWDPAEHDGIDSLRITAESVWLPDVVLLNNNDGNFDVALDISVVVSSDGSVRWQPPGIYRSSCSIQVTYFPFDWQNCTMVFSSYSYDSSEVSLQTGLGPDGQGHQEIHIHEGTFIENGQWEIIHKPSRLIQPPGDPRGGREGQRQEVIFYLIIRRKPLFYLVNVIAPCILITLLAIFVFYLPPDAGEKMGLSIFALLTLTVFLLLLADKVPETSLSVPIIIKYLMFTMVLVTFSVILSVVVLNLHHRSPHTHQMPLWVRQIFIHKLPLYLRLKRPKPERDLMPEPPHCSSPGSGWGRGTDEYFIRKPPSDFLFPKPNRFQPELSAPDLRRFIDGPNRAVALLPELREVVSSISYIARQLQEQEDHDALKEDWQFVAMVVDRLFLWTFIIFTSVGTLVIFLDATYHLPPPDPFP
wild-type AChR, sequence (Q07001 22-517): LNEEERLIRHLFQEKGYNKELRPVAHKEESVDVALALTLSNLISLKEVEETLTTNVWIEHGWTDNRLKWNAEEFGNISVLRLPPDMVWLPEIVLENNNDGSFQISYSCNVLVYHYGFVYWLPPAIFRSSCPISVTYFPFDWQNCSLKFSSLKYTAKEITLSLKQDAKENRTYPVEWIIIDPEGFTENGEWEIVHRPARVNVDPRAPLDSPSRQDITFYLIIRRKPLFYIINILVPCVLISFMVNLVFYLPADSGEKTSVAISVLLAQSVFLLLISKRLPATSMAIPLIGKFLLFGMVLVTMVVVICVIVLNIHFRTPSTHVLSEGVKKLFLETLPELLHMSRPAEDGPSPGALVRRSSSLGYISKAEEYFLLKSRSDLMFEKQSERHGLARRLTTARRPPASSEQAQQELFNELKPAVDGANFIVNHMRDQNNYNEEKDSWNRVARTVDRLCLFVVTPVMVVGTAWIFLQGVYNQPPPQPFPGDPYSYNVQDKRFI
wild-type AChR, sequence (Q04844 21-493): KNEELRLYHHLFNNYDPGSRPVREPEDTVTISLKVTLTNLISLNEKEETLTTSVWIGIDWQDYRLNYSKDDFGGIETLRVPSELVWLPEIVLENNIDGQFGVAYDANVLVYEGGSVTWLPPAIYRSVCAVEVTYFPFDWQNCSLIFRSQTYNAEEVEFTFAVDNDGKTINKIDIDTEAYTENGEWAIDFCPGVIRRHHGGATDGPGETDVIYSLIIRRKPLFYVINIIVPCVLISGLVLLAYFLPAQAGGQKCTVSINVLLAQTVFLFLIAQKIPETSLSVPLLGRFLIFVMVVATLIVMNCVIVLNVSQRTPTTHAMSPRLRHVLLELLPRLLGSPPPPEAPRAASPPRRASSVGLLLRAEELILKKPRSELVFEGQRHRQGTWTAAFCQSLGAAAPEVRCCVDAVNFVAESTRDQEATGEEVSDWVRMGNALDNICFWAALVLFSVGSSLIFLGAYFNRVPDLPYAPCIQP

Compound	Bursts τ1 [1, 2] [ms]	Bursts τ2 [1, 2]	Bursts, area of τ1 component [1, 2]	Bursts, area of τ2 component [1, 2]	Open intervals τ1 [1, 2] [ms]	Open intervals τ2 [1, 2] [ms]	Open intervals, area of τ1 component [1, 2]	Open intervals, area of τ2 component [1, 2]	burst duration time constant τ1 ([1]; Fig. 1 histogram, one patient, 5 μM ACh)	difference in ACh affinity for the two sites (Torpedo receptor) [fold]	difference in ACh affinity for the two sites (fetal mouse receptor) [fold]	difference in ACh affinity for the two sites (adult human receptor)	increase of ACh affinity in the presence of proadifen (wild-type AChR) [fold]
CC(=O)OCC[N+](C)(C)C [ACh, acetylcholine]	0.17 ± 0.025	0.59 ms and 0.59 ± 0.061 ms	0.61 ± 0.061	0.39 ± 0.061	0.17 ± 0.021	0.51 ± 0.037	0.65 ± 0.19	0.34 ± 0.096	0.185	~100	32	sixfold	–
CCCC(C(=O)OCCN(CC)CC)(c1ccccc1)c1ccccc1 [proadifen]	–	–	–	–	–	–	–	–	–	–	–	–	~100
